Where two headings read alike, the source gives them in different places.
How the values were obtained:
[1] = tested on: instantaneous inward-rectifier current; test: Whole-cell patch-clamp of instantaneous inward-rectifier current in canine cardiomyocytes; assay type: cell-based; conditions: at −120 mV, extracellular ion
Description: (§1) Adult mongrel dogs of either sex (weighing about 20-35 kg) were anaesthetized with pentobarbital (30 mg kg^−1 I.V.) and artificially ventilated with room air. Hearts and adjacent lung tissue were relatively quickly excised through a left lateral thoracotomy and immersed in oxygenated Tyrode solution (composition detailed hereinbelow) at room temperature. […] A left atrial (LA) preparation with the PVs intact was perfused via the left circumflex coronary artery, and subjected to either standard fine-tipped microelectrode recording of action potentials (APs) or cardiomyocyte isolation with collagenase-containing solutions, as previously described (Ehrlich et al. 2003). Six dogs were subjected to atrial tachycardia-induced remodeling induced by 1 week of atrial pacing at about 400 beats min^−1 after ablation of the AV node, as described in Li et al. 1999. Animal care and handling procedures followed the guidelines of the Canadian Council on Animal Care.
To isolate LA and PV cardiomyocytes, the proximal circumflex artery was cannulated and the distal ends of PV myocardial sleeves (approximately 1-1.5 cm from the PV-LA junction) were marked with silk thread prior to subsequent enzyme perfusion with collagenase (100 U ml^−1, Worthington, type II), in order to facilitate localization of PV sleeves after enzymatic digestion. […] All comparisons were based on PV and LA cardiomyocytes isolated from each dog on each experimental day. After isolation, cells were stored at 4° C. and studied on the same day. […]
Currents were recorded with the whole-cell patch-clamp technique at 36±0.5° C., as described in Yue et al. 1996. […] Capacitance was assessed using 5 mV, 10 ms hyperpolarizing steps from a holding potential (HP) of −60 mV. […]
Currents were recorded with hyperpolarizing and depolarizing pulses (generally 4 s duration) from a HP of −40 mV to selected test potentials (TPs). […] For the determination of reversal potentials, tail currents were recorded after 1.6 s pulses to −120 mV followed by 3.2 s depolarizations to TPs between −110 and +20. […]

IKH = assay type: cell-based, canine; conditions: for IC50: extracellular ion, read-out: IC50 for time-dependent IKH; for effect on IKH (in words): substance alone; for increase of IKH tail currents: following a pulse to −120 mV; for IKH tail current: following hyperpolarization to −120 mV; for IKH mean current density: at −100 mV; for IKH activation by carbachol after pertussis toxin pretreatment (in words): 1.5 mg l−1 PTX, 37° C., at least 9 h
Description: as §1
To isolate LA and PV cardiomyocytes, the proximal circumflex artery was cannulated and the distal ends of PV myocardial sleeves (approximately 1-1.5 cm from the PV-LA junction) were marked with silk thread prior to subsequent enzyme perfusion with collagenase (100 U ml^−1, Worthington, type II), in order to facilitate localization of PV sleeves after enzymatic digestion. […] All comparisons were based on PV and LA cardiomyocytes isolated from each dog on each experimental day. After isolation, cells were stored at 4° C. and studied on the same day. For standard microelectrode experiments, intact tissue preparations including the LA and adjacent PVs were mounted in a chamber and perfused via the circumflex artery with oxygenated Krebs solution at 36±0.5° C. (see for example Kneller et al. 2002).
(§2) Currents were recorded with the whole-cell patch-clamp technique at 36±0.5° C., as described in Yue et al. 1996. All junction potentials were zeroed prior to formation of gigaohm seals. […] Capacitance was assessed using 5 mV, 10 ms hyperpolarizing steps from a holding potential (HP) of −60 mV. […] Original recordings are shown in terms of current amplitude, but mean data are presented as current density (pA pF−1) to control for variability in cell size.
(§3) Currents were recorded with hyperpolarizing and depolarizing pulses (generally 4 s duration) from a HP of −40 mV to selected test potentials (TPs). Recordings were repeated 3 times, and mean values obtained. For the determination of reversal potentials, tail currents were recorded after 1.6 s pulses to −120 mV followed by 3.2 s depolarizations to TPs between −110 and +20. All voltage protocols were delivered at 0.1 Hz.
(§4) Tyrode solution contained (mM): NaCl 136, KCl 5.4, MgCl2 1, CaCl2 1, NaH2PO4 0.33, Hepes 5 and dextrose 10 (pH 7.35 with NaOH). The cell-storage solution contained (mM): KCl 20, KH2PO4 10, dextrose 10, mannitol 40, L-glutamic acid 70, β-OH-butyric acid 10, taurine 20, EGTA 10 and 0.1% bovine serum albumin (pH 7.3, KOH). Nifedipine (5 μM) was used to suppress L-type Ca^2+ current (ICa) in all experiments. 4-Aminopyridine (4-AP, 2 mM) was added to suppress transient outward current (Ito). […] Na+ current (INa) contamination was avoided by using a HP of −40 mV for recording of hyperpolarization-induced currents and by substitution of equimolar Tris-HCl for external NaCl for tail-current recordings.

holding current = test: Holding current in whole-cell patch-clamp of cardiomyocytes; assay type: cell-based, canine
Description: as §2, §3
as §4, with “recordings. When different external K^+ concentrations were applied, the osmolarity was kept constant by proportionate reduction of NaCl content in the solution. The standard internal solution contained (mM): potassium aspartate 110, KCl 20, MgCl2 1, MgATP 5, GTP (lithium salt) 0.1, Hepes 10, sodium phosphocreatine 5 and EGTA 5.0 (pH 7.3 with KOH). In experiments with K+-free internal solution, potassium aspartate was replaced by equimolar caesium aspartate and KCl by CsCl and pH was set to 7.3 with CsOH. For standard-microelectrode experiments, a solution containing (mM): NaCl 120, KCl 4, KH2PO4 1.2, MgSO4 1.2, NaHCO3 25, CaCl2 1.25 and dextrose 5 (95% O2-5% CO2, pH 7.4) was used to perfuse the tissue.” for “recordings.”
Stock solutions of BaCl2 (1 M) and CsCl (1 M) were produced initially and used throughout the experiments. Stock solution of isoproterenol was prepared under protection from light on the day of experiments and freshly prepared ascorbic acid (100 μM) was added in order to prevent isoproterenol oxidization. Carbachol (1 μM) was dissolved in Tyrode solution, tertiapin-Q in 0.1% acetic acid. GTPS (0.1 mM) was used in place of GTP in internal solutions for some experiments. For experiments involving pertussis toxin (PTX, stock solution dissolved in distilled H2O) cells were incubated at 37° C. in 1.5 mg I-1 PTX for at least 9 h prior to experiments. Parallel controls were performed with cells from the same isolates incubated in the same fashion and the same solution, but without PTX. […] Unless otherwise specified, drugs were obtained from Sigma.

With [Ba+2].[Cl-].[Cl-] [Ba^2+, BaCl2] the IC50 [1] was 76 ± 17.9 µM, the “inhibition of IKH (in words)” value (IKH; 1 μM, most cells) was “inhibited IKH appreciably” and the “inhibition of IKH (in words)” value (IKH; 10 μM) was “full inhibition”. The IC50 (IKH; at −120 mV) was 2 ± 0.3 µM.
With [Cl-].[Cs+] [Cs^+, CsCl] the IC50 [1] was 139 ± 34.2 µM and the IC50 (IKH; at −120 mV) was 184 ± 18.2 µM.
Nc1nc2c(ncn2[C@@H]2O[C@H](COP(=O)(O)OP(=O)(O)OP(O)(O)=S)[C@@H](O)[C@H]2O)c(=O)[nH]1 [GTPS] was tested, and the “further IKH response to carbachol with GTPS in the pipette (in words)” value (IKH; GTPS 0.1 mM in place of GTP) was “fully prevented”, the IKH current density (IKH; at −120 mV, GTPS in pipette, no cholinergic stimulation (regular GTP −3.8±0.6)) was −8.2±0.8 pA pF^−1 and the “effect on IKH (in words)” value (IKH) was “increased”.
With C[N+](C)(C)CCOC(N)=O [carbachol] the “average increase of IKH” value (IKH; 1 μM carbachol, voltages between −120 and −90 mV, PV cells) was 188±54%, the IKH current density (IKH; at −120 mV, 1 μM carbachol, GTP-containing pipettes (before −6.2±1.0)) was −10.0±1.2 pA pF^−1 and the IKH current density (IKH; at −120 mV, 1 μM carbachol, GTP-free pipettes (before −8.3±0.7)) was −8.3±1.1 pA pF^−1. It also gave an IKH current density (IKH; at −120 mV, 1 μM carbachol, LA cells (baseline −1.9±0.4)) of −4.9±1.1 pA pF^−1, an IKH current density (IKH; at −120 mV, 1 μM carbachol, PV cells (baseline −2.6±0.5)) of −5.0±0.6 pA pF^−1 and an IKH density (IKH; at −120 mV, carbachol, cells incubated without PTX at 37° C. >9 h (before −6.2±1.8)) of −11.5±1.8 pA pF^−1. For the same molecule, the IKH density (IKH; at −120 mV, carbachol, cells preincubated with PTX) was −5.5±1.2 pA pF−1, the “increase of IKH tail currents” value (IKH; carbachol, PTX-treated cells) was 127±37% and the “increase of IKH tail currents” value (IKH; carbachol, cells incubated without PTX) was 538±170%. The IKH tail current (IKH; after carbachol, PTX-free conditions (before 2.1±0.7)) was 8.4±1.6 pA pF^−1, the IKH tail current (IKH; after carbachol, PTX-preincubated cells) was 3.4±0.9 pA pF^−1 and the “effect on IKH (in words)” value (IKH) was “increased”.
CC(C)NCC(O)c1ccc(O)c(O)c1 (stereo not shown) [isoproterenol] was tested, and the “time to steady-state effect on IKH” value (IKH; 1 μM isoproterenol, PV cell) was ≤ 2 min, the “IKH mean current density” value (IKH; 10 nM isoproterenol (control −0.9±0.1)) was −1.2±0.1 pA pF^−1 and the “IKH mean current density” value (IKH; 100 nM isoproterenol (control −0.9±0.1)) was −1.4±0.2 pA pF^−1. The “IKH mean current density” value (IKH; 1000 nM isoproterenol (control −0.9±0.1)) was −1.5±0.1 pA pF^−1, the mean end-pulse current (IKH; at −120 mV, 1 μM isoproterenol in the presence of 200 nM tertiapin-Q) was 0.20±0.07 pA pF^−1 and the “effect on IKH (in words)” value (IKH) was “increased”. The “increase of holding current” value (holding current; 10 nM isoproterenol) was 59±14%, the holding current (holding current; 10 nM isoproterenol (control 44±11)) was 65±14 pA pF−1 and the “increase of holding current” value (holding current; 100 nM isoproterenol) was 89±33%. The holding current (holding current; 100 nM isoproterenol (control 44±11)) was 70±13 pA pF−1, the “increase of holding current” value (holding current; 1000 nM isoproterenol) was 144±37% and the holding current (holding current; 1000 nM isoproterenol (control 44±11)) was 87±14 pA pF−1.
For pertussis toxin, the “IKH activation by carbachol after pertussis toxin pretreatment (in words)” value (IKH; 1 μM carbachol) was “prevented”, the “IKH activation by carbachol after pertussis toxin pretreatment (in words)” value (IKH; 1 μM carbachol, listed as PTX) was “attenuated” and the IKH density (IKH; at −120 mV, cells preincubated with PTX, before carbachol) was −6.4±0.8 pA pF^−1. The IKH tail current (IKH; PTX-preincubated cells, before carbachol) was 1.8±0.6 pA pF^−1.
